Assay results: patent US11759455B2, “Substituted 1H-imidazo[4,5-b]pyridin-2(3H)-ones and their use as GLUN2B receptor modulators” (JANSSEN PHARMACEUTICA NV, priority 2016, dated 2023)

Biological target: T1, human GluN1/GluN2B NMDA receptors (Homo sapiens, UniProt Q13224)
T1 construct: expressed in transfected cells
Assay: Cell-based calcium flux (FLIPR) assay on cloned human NR1/NR2B ion channels expressed in mammalian cells (standard and HTS buffer variants);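 further: stable Tet-On inducible cell line, Ca2+ influx triggered by glutamate at about EC40 plus 10 µM glycine, fluorescent dye read-out over 5 min, normalized to control wells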
Conditions: standard assay buffer (0.5 mM MgCl2 dye loading; 137 mM NaCl, 4 mM KCl assay buffer), human GluN1/GluN2B cells, read-out: NR2B IC50 (μM) standard assay

T1 sequence (Q13224 27-1484, other chains not shown): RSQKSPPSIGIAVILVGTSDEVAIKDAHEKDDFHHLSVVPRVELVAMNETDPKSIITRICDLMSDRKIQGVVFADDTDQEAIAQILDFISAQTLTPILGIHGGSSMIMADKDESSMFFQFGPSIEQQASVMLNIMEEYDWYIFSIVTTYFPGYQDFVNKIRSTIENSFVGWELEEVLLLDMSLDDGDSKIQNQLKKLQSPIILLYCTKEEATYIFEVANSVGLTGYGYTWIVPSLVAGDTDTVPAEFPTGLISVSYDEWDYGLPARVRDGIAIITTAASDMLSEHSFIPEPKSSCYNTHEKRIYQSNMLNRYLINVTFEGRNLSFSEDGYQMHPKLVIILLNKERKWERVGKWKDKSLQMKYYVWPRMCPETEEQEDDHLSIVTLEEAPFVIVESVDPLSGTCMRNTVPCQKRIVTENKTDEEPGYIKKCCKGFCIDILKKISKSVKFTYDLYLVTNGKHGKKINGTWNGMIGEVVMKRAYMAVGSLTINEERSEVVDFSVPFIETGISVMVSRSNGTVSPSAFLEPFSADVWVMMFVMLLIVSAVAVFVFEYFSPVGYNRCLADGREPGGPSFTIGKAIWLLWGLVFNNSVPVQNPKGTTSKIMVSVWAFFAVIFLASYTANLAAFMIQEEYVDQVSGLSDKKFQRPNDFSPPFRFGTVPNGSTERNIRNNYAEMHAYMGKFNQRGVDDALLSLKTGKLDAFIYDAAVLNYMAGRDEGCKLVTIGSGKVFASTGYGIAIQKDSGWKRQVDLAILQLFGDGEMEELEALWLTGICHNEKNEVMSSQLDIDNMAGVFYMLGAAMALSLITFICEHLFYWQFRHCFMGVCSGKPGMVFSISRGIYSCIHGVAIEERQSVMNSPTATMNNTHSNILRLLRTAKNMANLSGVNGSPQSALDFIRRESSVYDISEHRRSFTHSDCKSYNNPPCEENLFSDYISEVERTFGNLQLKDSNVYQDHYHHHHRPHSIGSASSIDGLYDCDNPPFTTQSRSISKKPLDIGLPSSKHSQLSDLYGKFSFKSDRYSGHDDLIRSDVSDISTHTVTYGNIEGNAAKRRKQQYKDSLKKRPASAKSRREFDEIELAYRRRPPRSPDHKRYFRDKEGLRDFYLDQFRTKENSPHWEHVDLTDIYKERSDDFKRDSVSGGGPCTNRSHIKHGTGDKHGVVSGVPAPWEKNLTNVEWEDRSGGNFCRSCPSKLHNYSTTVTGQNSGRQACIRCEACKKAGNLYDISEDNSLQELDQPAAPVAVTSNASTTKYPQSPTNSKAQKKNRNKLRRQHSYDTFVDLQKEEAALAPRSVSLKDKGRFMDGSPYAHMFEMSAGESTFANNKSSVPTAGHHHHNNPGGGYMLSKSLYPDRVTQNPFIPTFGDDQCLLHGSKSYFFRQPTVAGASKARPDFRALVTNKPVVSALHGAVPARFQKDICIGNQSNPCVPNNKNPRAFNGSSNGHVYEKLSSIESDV

Row | IC50 [µM] | SMILES
1 | 2.86 | O=c1[nH]c2ncc(-c3cccc(C(F)(F)F)c3)cc2n1Cc1cnccc1C(F)(F)F [Example 260, 6-[3-(Trifluoromethyl)phenyl]-1-[[4-(trifluoromethyl)-3-pyridyl]methyl]-3H-imidazo[4,5-b]pyridin-2-one]
2 | 0.573 | Cn1c(=O)n(Cc2ncccn2)c2cc(-c3cccc(C(F)(F)F)c3)cnc21 [Example 261, 3-Methyl-1-(pyrimidin-2-ylmethyl)-6-[3-(trifluoromethyl)phenyl]imidazo[4,5-b]pyridin-2-one]
3 | 0.308 | O=C(Cn1c(=O)[nH]c2ncc(-c3cccc(C(F)(F)F)c3)cc21)C1CCC1 [Example 262, 1-(2-cyclobutyl-2-oxo-ethyl)-6-[3-(trifluoromethyl)phenyl]-3H-imidazo[4,5-b]pyridin-2-one]
4 | 0.128 | Cc1cncc(Cn2c(=O)[nH]c3ncc(-c4ccc(F)c(C)c4)cc32)c1 [Example 269, 6-(4-Fluoro-3-methyl-phenyl)-1-[(5-methyl-3-pyridyl)methyl]-3H-imidazo[4,5-b]pyridin-2-one]
5 | 0.115 | Cc1cncc(Cn2c(=O)[nH]c3ncc(-c4ccc(F)c(C)c4F)cc32)c1 [Example 270, 6-(2,4-Difluoro-3-methyl-phenyl)-1-[(5-methyl-3-pyridyl)methyl]-3H-imidazo[4,5-b]pyridin-2-one]
6 | 0.034 | Cc1cncc(Cn2c(=O)[nH]c3ncc(-c4ccc(F)c(F)c4)cc32)c1 [Example 272, 6-(3,4-Difluorophenyl)-1-[(5-methyl-3-pyridyl)methyl]-3H-imidazo[4,5-b]pyridin-2-one]
7 | 0.096 | Cc1cncc(Cn2c(=O)[nH]c3ncc(-c4cccc(Cl)c4)cc32)c1 [Example 273, 6-(3-Chlorophenyl)-1-[(5-methyl-3-pyridyl)methyl]-3H-imidazo[4,5-b]pyridin-2-one]
8 | 0.057 | Cc1cncc(Cn2c(=O)[nH]c3ncc(-c4cccc(F)c4)cc32)c1 [Example 274, 6-(3-Fluorophenyl)-1-[(5-methyl-3-pyridyl)methyl]-3H-imidazo[4,5-b]pyridin-2-one]
9 | 0.009 | Cc1ccncc1Cn1c(=O)[nH]c2ncc(-c3ccc(F)c(F)c3)cc21 [Example 275, 6-(3,4-Difluorophenyl)-1-[(4-methyl-3-pyridyl)methyl]-3H-imidazo[4,5-b]pyridin-2-one]
10 | 0.034 | Cc1ccncc1Cn1c(=O)[nH]c2ncc(-c3cccc(F)c3)cc21 [Example 276, 6-(3-Fluorophenyl)-1-[(4-methyl-3-pyridyl)methyl]-3H-imidazo[4,5-b]pyridin-2-one]
11 | 0.077 | Cc1cc(-c2cnc3[nH]c(=O)n(Cc4cnccc4C)c3c2)ccc1F [Example 277, 6-(4-Fluoro-3-methyl-phenyl)-1-[(4-methyl-3-pyridyl)methyl]-3H-imidazo[4,5-b]pyridin-2-one]
12 | 0.111 | Cc1ccncc1Cn1c(=O)[nH]c2ncc(-c3ccc(F)c(C)c3F)cc21 [Example 278, 6-(2,4-Difluoro-3-methyl-phenyl)-1-[(4-methyl-3-pyridyl)methyl]-3H-imidazo[4,5-b]pyridin-2-one]
13 | 5.03 | O=c1[nH]c2ncc(-c3ccc(F)c(F)c3)cc2n1Cc1ccccn1 [Example 279, 6-(3,4-Difluorophenyl)-1-(2-pyridylmethyl)-3H-imidazo[4,5-b]pyridin-2-one]
14 | 0.576 | Cc1c(F)ccc(-c2cnc3[nH]c(=O)n(Cc4ccccn4)c3c2)c1F [Example 280, 6-(2,4-Difluoro-3-methyl-phenyl)-1-(2-pyridylmethyl)-3H-imidazo[4,5-b]pyridin-2-one]
15 | 0.932 | O=c1[nH]c2ncc(-c3cccc(F)c3)cc2n1Cc1ccccn1 [Example 281, 6-(3-Fluorophenyl)-1-(2-pyridylmethyl)-3H-imidazo[4,5-b]pyridin-2-one]
16 | 2.61 | O=c1[nH]c2ncc(-c3cccc(Cl)c3)cc2n1Cc1ccccn1 [Example 282, 6-(3-Chlorophenyl)-1-(2-pyridylmethyl)-3H-imidazo[4,5-b]pyridin-2-one]
17 | 0.079 | Cc1cc(-c2cnc3[nH]c(=O)n(Cc4ccccn4)c3c2)ccc1F [Example 283, 6-(4-Fluoro-3-methyl-phenyl)-1-(2-pyridylmethyl)-3H-imidazo[4,5-b]pyridin-2-one]
18 | > 10 | Cc1cccnc1Cn1c(=O)[nH]c2ncc(-c3ccc(F)c(F)c3)cc21 [Example 284, 6-(3,4-Difluorophenyl)-1-[(3-methyl-2-pyridyl)methyl]-3H-imidazo[4,5-b]pyridin-2-one]
19 | > 10 | Cc1cccnc1Cn1c(=O)[nH]c2ncc(-c3cccc(F)c3)cc21 [Example 285, 6-(3-Fluorophenyl)-1-[(3-methyl-2-pyridyl)methyl]-3H-imidazo[4,5-b]pyridin-2-one]
20 | 1.98 | O=c1[nH]c2ncc(-c3ccc(F)cc3)cc2n1Cc1ccccn1 [Example 286, 6-(4-Fluorophenyl)-1-(2-pyridylmethyl)-3H-imidazo[4,5-b]pyridin-2-one]
21 | 0.107 | O=c1[nH]c2ncc(-c3cccc(C(F)F)c3)cc2n1Cc1ccccn1 [Example 287, 6-[3-(Difluoromethyl)phenyl]-1-(2-pyridylmethyl)-3H-imidazo[4,5-b]pyridin-2-one]

Row | IC50 [µM] | SMILES
22 | 4.05 | COc1cccc(-c2cnc3[nH]c(=O)n(Cc4ccccn4)c3c2)c1 [Example 288, 6-(3-Methoxyphenyl)-1-(2-pyridylmethyl)-3H-imidazo[4,5-b]pyridin-2-one]
23 | 7.08 | Cc1ccc(-c2cnc3[nH]c(=O)n(Cc4ccccn4)c3c2)cc1 [Example 289, 6-(p-Tolyl)-1-(2-pyridylmethyl)-3H-imidazo[4,5-b]pyridin-2-one]
24 | 0.065 | O=c1[nH]c2ncc(-c3cccc(F)c3)cc2n1Cc1cccnc1 [Example 290, 6-(3-fluorophenyl)-1-(3-pyridylmethyl)-3H-imidazo[4,5-b]pyridin-2-one]
25 | 0.022 | O=c1[nH]c2ncc(-c3cccc(C(F)F)c3)cc2n1Cc1cccnc1 [Example 291, 6-[3-(Difluoromethyl)phenyl]-1-(3-pyridylmethyl)-3H-imidazo[4,5-b]pyridin-2-one]
26 | 0.06 | O=c1[nH]c2ncc(-c3ccc(F)c(F)c3)cc2n1Cc1cccnc1 [Example 292, 6-(3,4-Difluorophenyl)-1-(3-pyridylmethyl)-3H-imidazo[4,5-b]pyridin-2-one]
27 | 0.017 | Cc1c(F)ccc(-c2cnc3[nH]c(=O)n(Cc4cccnc4)c3c2)c1F [Example 293, 6-(2,4-Difluoro-3-methyl-phenyl)-1-(3-pyridylmethyl)-3H-imidazo[4,5-b]pyridin-2-one]
28 | 0.023 | Cc1cc(-c2cnc3[nH]c(=O)n(Cc4cccnc4)c3c2)ccc1F [Example 294, 6-(4-Fluoro-3-methyl-phenyl)-1-(3-pyridylmethyl)-3H-imidazo[4,5-b]pyridin-2-one]
29 | 0.098 | O=c1[nH]c2ncc(-c3ccc(F)cc3)cc2n1Cc1cccnc1 [Example 295, 6-(4-Fluorophenyl)-1-(3-pyridylmethyl)-3H-imidazo[4,5-b]pyridin-2-one]
30 | 0.029 | O=c1[nH]c2ncc(-c3cccc(Cl)c3)cc2n1Cc1cccnc1 [Example 296, 6-(3-Chlorophenyl)-1-(3-pyridylmethyl)-3H-imidazo[4,5-b]pyridin-2-one]
31 | 0.027 | Cc1cccc(-c2cnc3[nH]c(=O)n(Cc4cccnc4)c3c2)c1 [Example 297, 6-(m-Tolyl)-1-(3-pyridylmethyl)-3H-imidazo[4,5-b]pyridin-2-one]
32 | 0.032 | O=c1[nH]c2ncc(-c3ccc(F)c(F)c3)cc2n1Cc1cncc(F)c1 [Example 298, 6-(3,4-Difluorophenyl)-1-[(5-fluoro-3-pyridyl)methyl]-3H-imidazo[4,5-b]pyridin-2-one]
33 | 0.019 | Cc1cc(-c2cnc3[nH]c(=O)n(Cc4cncc(F)c4)c3c2)ccc1F [Example 299, 6-(4-Fluoro-3-methyl-phenyl)-1-[(5-fluoro-3-pyridyl)methyl]-3H-imidazo[4,5-b]pyridin-2-one]
34 | 0.03 | O=c1[nH]c2ncc(-c3cccc(OC(F)F)c3)cc2n1Cc1cccnc1 [Example 300, 6-[3-(Difluoromethoxy)phenyl]-1-(3-pyridylmethyl)-3H-imidazo[4,5-b]pyridin-2-one]
35 | 0.045 | Cc1c(F)ccc(-c2cnc3[nH]c(=O)n(Cc4cncc(F)c4)c3c2)c1F [Example 301, 6-(2,4-Difluoro-3-methyl-phenyl)-1-[(5-fluoro-3-pyridyl)methyl]-3H-imidazo[4,5-b]pyridin-2-one]
36 | 0.022 | O=c1[nH]c2ncc(-c3cccc(C(F)F)c3)cc2n1Cc1cncc(F)c1 [Example 302, 6-[3-(Difluoromethyl)phenyl]-1-[(5-fluoro-3-pyridyl)methyl]-3H-imidazo[4,5-b]pyridin-2-one]
37 | 0.03 | O=c1[nH]c2ncc(-c3cccc(F)c3F)cc2n1Cc1cncc(F)c1 [Example 303, 6-(2,3-Difluorophenyl)-1-[(5-fluoro-3-pyridyl)methyl]-3H-imidazo[4,5-b]pyridin-2-one]
38 | 0.021 | O=c1[nH]c2ncc(-c3cccc(OC(F)F)c3)cc2n1Cc1cncc(F)c1 [Example 304, 6-[3-(Difluoromethoxy)phenyl]-1-[(5-fluoro-3-pyridyl)methyl]-3H-imidazo[4,5-b]pyridin-2-one]
39 | 0.013 | O=c1[nH]c2ncc(-c3cccc(Cl)c3)cc2n1Cc1cncc(F)c1 [Example 305, 6-(3-Chlorophenyl)-1-[(5-fluoro-3-pyridyl)methyl]-3H-imidazo[4,5-b]pyridin-2-one]
40 | 0.086 | Cc1cc(-c2cnc3[nH]c(=O)n(Cc4cncc(F)c4)c3c2)ccc1Cl [Example 306, 6-(4-Chloro-3-methyl-phenyl)-1-[(5-fluoro-3-pyridyl)methyl]-3H-imidazo[4,5-b]pyridin-2-one]
41 | 0.088 | O=c1[nH]c2ncc(-c3cccc(OC(F)(F)F)c3)cc2n1Cc1cncc(F)c1 [Example 307, 1-[(5-Fluoro-3-pyridyl)methyl]-6-[3-(trifluoromethoxy)phenyl]-3H-imidazo[4,5-b]pyridin-2-one]
42 | 0.03 | Cc1cncc(Cn2c(=O)[nH]c3ncc(-c4cc(F)c(F)c(F)c4)cc32)c1 [Example 308, 1-[(5-Methyl-3-pyridyl)methyl]-6-(3,4,5-trifluorophenyl)-3H-imidazo[4,5-b]pyridin-2-one]
